The record followed here is patent US20220324835A1 (Nurix Therapeutics, Inc., priority 2018, published 2022).

Holding throughout (type): cell-based, human
Assay [1] deals with T-cell. Kind of assay: CD25 cell surface staining on T-cells stimulated with anti-CD3 antibody alone (Biological Example 2). The following applies: T-cell, fold change over baseline, primary human total T-cells, read-out: CD25 staining Anti-CD3 stimulation; for fold induction at 1 µM: 1 μM Cbl-b inhibitor; for fold induction at 8 µM: 8 μM Cbl-b inhibitor.
Assay [2] has as its system T-cell. Kind of assay: IL-2 secretion from T-cells co-stimulated with anti-CD3 and anti-CD28 antibody (Biological Example 2). The following applies: Homo sapiens, T-cell, fold change over baseline, primary human total T-cells, read-out: IL-2 secretion Anti-CD3/Anti-CD28 stimulation; for fold induction at 0.3 µM: 0.3 μM Cbl-b inhibitor; for fold induction at 1 µM: 1 μM Cbl-b inhibitor; for fold induction at 4 µM: 4 μM Cbl-b inhibitor. The gist of the method: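 T-cells were stimulated with anti-CD3 antibody alone or with anti-CD28 antibody, in the presence or absence of Cbl-b inhibitor. IL-2 secretion or CD25 surface staining was measured, and values expressed as fold over the uninhibited baseline […].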

Assay [3] concerns T-cell. As to the kind of experiment: IL-2 secretion from T-cells stimulated with anti-CD3 antibody alone (Biological Example 2). The following applies: T-cell, fold change over baseline, primary human total T-cells, read-out: IL-2 secretion Anti-CD3 stimulation; for fold induction at 1 µM: 1 μM Cbl-b inhibitor; for fold induction at 8 µM: 8 μM Cbl-b inhibitor.

SMILES strings stand for the structures. A value given as a limit tells only on which side of the number the result lay.

`C[C@H](Cc1nncn1C)c1cccc(NC(=O)c2cc(C(C)(C)O)c(Cl)cn2)c1` [Compound 186, (R)-5-chloro-4-(2-hydroxypropan-2-yl)-N-(3-(1-(4-methyl-4H-1,2,4-triazol-3-yl)propan-2-yl)phenyl)picolinamide]: in assay [1], the fold induction at 1 µM is < 0.6 and the fold induction at 8 µM was < 0.6. For the same compound, in assay [2], the fold induction at 0.3 µM is 2.51 to 5, the fold induction at 1 µM was 1.01 to 2.5 and the fold induction at 4 µM is 5 to 7.5. In assay [3], the fold induction at 1 µM is 0.051 to 0.1 and the fold induction at 8 µM lay within 0.101 to 0.15.

On to `C[C@H](Cc1nncn1C)c1cccc(NC(=O)c2cccc(C(F)(F)CO)n2)c1` [Compound 188, (R)-6-(1,1-difluoro-2-hydroxyethyl)-N-(3-(1-(4-methyl-4H-1,2,4-triazol-3-yl)propan-2-yl)phenyl)picolinamide], for which, in assay [1], the fold induction at 1 µM was < 0.6 and the fold induction at 8 µM was < 0.6. In assay [2], the fold induction at 0.3 µM is < 1, the fold induction at 1 µM is < 1 and the fold induction at 4 µM is < 1. Further, in assay [3], the fold induction at 1 µM is < 0.05 and the fold induction at 8 µM fell in the range of 0.051 to 0.1.

Turning to `C[C@H](Cc1nncn1C)c1cccc(NC(=O)c2cncc(C(F)(F)F)n2)c1` [Compound 189, (R)-N-(3-(1-(4-methyl-4H-1,2,4-triazol-3-yl)propan-2-yl)phenyl)-6-(trifluoromethyl)pyrazine-2-carboxamide], in assay [1], the fold induction at 1 µM lay in the range of 0.601 to 0.8 and the fold induction at 8 µM is > 1. In assay [2], the fold induction at 0.3 µM was 1.01 to 2.5, the fold induction at 1 µM is 2.51 to 5 and the fold induction at 4 µM was 5 to 7.5. Also, in assay [3], the fold induction at 1 µM lay in the range of 0.051 to 0.1 and the fold induction at 8 µM is 0.051 to 0.1.

For `C[C@H](Cc1nncn1C)c1cccc(NC(=O)c2cc(C3(O)COC3)cc(C(F)(F)F)n2)c1` [Compound 190, (R)-4-(3-hydroxyoxetan-3-yl)-N-(3-(1-(4-methyl-4H-1,2,4-triazol-3-yl)propan-2-yl)phenyl)-6-(trifluoromethyl)picolinamide], in assay [1], the fold induction at 1 µM lay in the range of 0.601 to 0.8 and the fold induction at 8 µM was > 1. In addition, in assay [2], the fold induction at 0.3 µM was < 1, the fold induction at 1 µM lay within 1.01 to 2.5 and the fold induction at 4 µM was 5 to 7.5. In assay [3], the fold induction at 1 µM was < 0.05 and the fold induction at 8 µM lay within 0.101 to 0.15.

Turning to `C[C@H](Cc1nncn1C)c1cccc(NC(=O)c2cc(S(C)(=O)=O)cc(C3CC3)n2)c1` [Compound 198, 6-cyclopropyl-N-[3-[(1R)-1-methyl-2-(4-methyl-1,2,4-triazol-3-yl)ethyl]phenyl]-4-methylsulfonyl-pyridine-2-carboxamide], in assay [1], the fold induction at 1 µM was 0.801 to 1 and the fold induction at 8 µM is > 1. In addition, in assay [2], the fold induction at 0.3 µM is 1.01 to 2.5, the fold induction at 1 µM was in the range of 1.01 to 2.5 and the fold induction at 4 µM was in the range of 1.01 to 2.5. In assay [3], the fold induction at 1 µM lay in the range of 0.101 to 0.15 and the fold induction at 8 µM is > 0.201.

Consider `C[C@H](Cc1nncn1C)c1cccc(NC(=O)c2cc(S(N)(=O)=O)cc(C(F)(F)F)n2)c1` [Compound 200, (R)-N-(3-(1-(4-methyl-4H-1,2,4-triazol-3-yl)propan-2-yl)phenyl)-4-sulfamoyl-6-(trifluoromethyl)picolinamide], for which, in assay [1], the fold induction at 1 µM was 0.801 to 1 and the fold induction at 8 µM is > 1. In addition, in assay [2], the fold induction at 0.3 µM was < 1, the fold induction at 1 µM was < 1 and the fold induction at 4 µM lay in the range of 1.01 to 2.5. In addition, in assay [3], the fold induction at 1 µM was < 0.05 and the fold induction at 8 µM lay within 0.051 to 0.1.

`CNS(=O)(=O)c1cc(C(=O)Nc2cccc([C@H](C)Cc3nncn3C)c2)nc(C(F)(F)F)c1` [Compound 201, (R)-N-(3-(1-(4-methyl-4H-1,2,4-triazol-3-yl)propan-2-yl)phenyl)-4-(N-methylsulfamoyl)-6-(trifluoromethyl)picolinamide]: in assay [1], the fold induction at 1 µM lay within 0.801 to 1 and the fold induction at 8 µM is > 1. For the same compound, in assay [2], the fold induction at 0.3 µM is 1.01 to 2.5, the fold induction at 1 µM lay in the range of 1.01 to 2.5 and the fold induction at 4 µM was < 1. Further, in assay [3], the fold induction at 1 µM was 0.151 to 0.2 and the fold induction at 8 µM is > 0.201.

`C[C@H](Cc1nncn1C)c1cccc(NC(=O)c2cc(O[C@H]3CC[C@@H](O)C3)ccn2)c1` [Compound 206, 4-((1S,3R)-3-hydroxycyclopentyloxy)-N-(3-((R)-1-(4-methyl-4H-1,2,4-triazol-3-yl)propan-2-yl)phenyl)picolinamide]: in assay [1], the fold induction at 1 µM is 0.801 to 1 and the fold induction at 8 µM was in the range of 0.801 to 1. In assay [2], the fold induction at 0.3 µM is 1.01 to 2.5, the fold induction at 1 µM was 1.01 to 2.5 and the fold induction at 4 µM lay in the range of 2.51 to 5. In assay [3], the fold induction at 1 µM is < 0.05 and the fold induction at 8 µM fell in the range of 0.051 to 0.1.

As for `Cc1ccc(C(=O)Nc2cccc([C@H](C)Cc3nnc[nH]3)c2)nc1C1CC1` [Compound 212, (R)-N-(3-(1-(4H-1,2,4-triazol-3-yl)propan-2-yl)phenyl)-6-cyclopropyl-5-methylpicolinamide], in assay [1], the fold induction at 1 µM was < 0.6 and the fold induction at 8 µM is < 0.6. Also, in assay [2], the fold induction at 0.3 µM was 1.01 to 2.5, the fold induction at 1 µM was 1.01 to 2.5 and the fold induction at 4 µM fell in the range of 1.01 to 2.5. For the same compound, in assay [3], the fold induction at 1 µM is < 0.05 and the fold induction at 8 µM was < 0.05.

Take `Cc1conc1C[C@@H](C)c1cccc(NC(=O)c2ccnc(C(F)(F)F)n2)c1` [Compound 213a, (R)-N-(3-(1-(4-methylisoxazol-3-yl)propan-2-yl)phenyl)-2-(trifluoromethyl)pyrimidine-4-carboxamide]: in assay [1], the fold induction at 1 µM lay in the range of 0.801 to 1 and the fold induction at 8 µM was > 1. Also, in assay [2], the fold induction at 0.3 µM was in the range of 1.01 to 2.5, the fold induction at 1 µM lay in the range of 1.01 to 2.5 and the fold induction at 4 µM lay in the range of 2.51 to 5. For the same compound, in assay [3], the fold induction at 1 µM was 0.051 to 0.1 and the fold induction at 8 µM fell in the range of 0.101 to 0.15.

For `C[C@H](Cc1nncn1C)c1cccc(NC(=O)c2cc(C(=O)N3CC[C@](C)(O)C3)ccn2)c1` [Compound 222, 4-((S)-3-hydroxy-3-methylpyrrolidine-1-carbonyl)-N-(3-((R)-1-(4-methyl-4H-1,2,4-triazol-3-yl)propan-2-yl)phenyl)picolinamide], in assay [1], the fold induction at 1 µM was < 0.6 and the fold induction at 8 µM was < 0.6. In assay [2], the fold induction at 0.3 µM was < 1, the fold induction at 1 µM is < 1 and the fold induction at 4 µM is < 1. In assay [3], the fold induction at 1 µM is < 0.05 and the fold induction at 8 µM is < 0.05.

In the case of `C[C@H](Cc1nncn1C)c1cccc(NC(=O)c2cc(C(=O)N3C[C@@H](O)C[C@H]3C)ccn2)c1` [Compound 224, 4-((2R,4S)-4-hydroxy-2-methylpyrrolidine-1-carbonyl)-N-(3-((R)-1-(4-methyl-4H-1,2,4-triazol-3-yl)propan-2-yl)phenyl)picolinamide], in assay [1], the fold induction at 1 µM was < 0.6 and the fold induction at 8 µM is < 0.6. Besides, in assay [2], the fold induction at 0.3 µM is < 1, the fold induction at 1 µM was < 1 and the fold induction at 4 µM was < 1. In assay [3], the fold induction at 1 µM is 0.101 to 0.15 and the fold induction at 8 µM was in the range of 0.101 to 0.15.
